In ChEMBL document CHEMBL1201862, “PubChem BioAssay data set” (2004):
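Cultured in 96-well plates, cells were exposed to test compound for 48 hours across five concentrations. Abbreviation: GI50, concentration required for 50% inhibition of growth.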 Calls of active or inactive are those of the source. Cut-off read from the data, not from the text of the source: active = GI50 up to about 1.1 µM and inactive = higher.

Columns and labels:
Test in all cases: NCI anticancer screen, dose series, 48 h
[1] = system: 786-0
[2] = system: A549
[3] = system: ACHN
[4] = system: BT-549
[5] = system: CAKI-1
[6] = system: HT-29
[7] = system: Hs-578T
[8] = system: IGROV-1
[9] = system: KM12
[10] = system: MDA-MB-231
[11] = system: MOLT-4
[12] = system: NCI-H522
[13] = system: RPMI-8226
[14] = system: SK-MEL-28
[15] = system: SK-MEL-2
[16] = system: SK-MEL-5
[17] = system: SK-OV-3
[18] = system: SNB-75
[19] = system: UACC-257
[20] = system: UO-31

Measured: GI50

CC(=O)O[C@H]1CC[C@@]2(C)C(=CC[C@H]3[C@@H]4C[C@H](N5CCN(C)CC5)[C@H](OC(C)=O)[C@@]4(C)CC[C@@H]32)C1
inactive: [1] 19.2 µM | [2] 18.5 µM | [3] 41.9 µM | [4] 17.8 µM | [5] 33.3 µM | [6] 3.6 µM | [7] 26.2 µM | [8] 19 µM | [9] 16.7 µM | [10] 16.7 µM | [11] 4.39 µM | [12] 18.8 µM | [13] 4.39 µM | [14] 12.5 µM | [15] 18 µM | [16] 3.53 µM | [17] > 47.2 µM | [18] 24.4 µM | [19] 6.17 µM | [20] > 53 µM

Cc1cc(/N=N/c2c(O)ccc3ccccc23)ccc1/N=N/c1cccc([N+](C)(C)C)c1
inactive: [1] 21 µM | [2] 12.1 µM | [3] 23.8 µM | [4] 3.08 µM | [5] 22.7 µM | [6] 3.66 µM | [7] 4.17 µM | [8] 2.87 µM | [9] 3.37 µM | [10] 8.57 µM | [11] 10.8 µM | [12] 3.98 µM | [13] 4.22 µM | [14] 16 µM | [15] 7.83 µM | [16] 2.86 µM | [17] 21.3 µM | [18] 4 µM | [19] 12.2 µM | [20] 15.7 µM

O=C(Nc1ccc2nc(O)n[n+]([O-])c2c1)C(F)(F)F
inactive: [1] > 100 µM | [2] > 100 µM | [3] > 100 µM | [4] > 100 µM | [5] > 100 µM | [6] > 100 µM | [7] > 100 µM | [8] > 100 µM | [9] > 100 µM | [10] > 100 µM | [11] > 100 µM | [12] > 100 µM | [13] > 100 µM | [14] > 100 µM | [15] > 100 µM | [16] > 100 µM | [17] > 100 µM | [18] > 100 µM | [19] > 100 µM | [20] > 100 µM
